Key:
Assay type in all cases: functional, cell-based
[1] = molecular target: T1, Muscarinic acetylcholine receptor M5 (Homo sapiens, UniProt P08912); assay: Negative allosteric modulation of human muscarinic acetylcholine receptor M5 expressed in CHO cells assessed as inhibition of acetylcholine-induced calcium mobilization incubated for 150 secs prior to acetylcholine induction by Fluo-4 AM staining-based fluorescence assay
T1 sequence (P08912 whole entry): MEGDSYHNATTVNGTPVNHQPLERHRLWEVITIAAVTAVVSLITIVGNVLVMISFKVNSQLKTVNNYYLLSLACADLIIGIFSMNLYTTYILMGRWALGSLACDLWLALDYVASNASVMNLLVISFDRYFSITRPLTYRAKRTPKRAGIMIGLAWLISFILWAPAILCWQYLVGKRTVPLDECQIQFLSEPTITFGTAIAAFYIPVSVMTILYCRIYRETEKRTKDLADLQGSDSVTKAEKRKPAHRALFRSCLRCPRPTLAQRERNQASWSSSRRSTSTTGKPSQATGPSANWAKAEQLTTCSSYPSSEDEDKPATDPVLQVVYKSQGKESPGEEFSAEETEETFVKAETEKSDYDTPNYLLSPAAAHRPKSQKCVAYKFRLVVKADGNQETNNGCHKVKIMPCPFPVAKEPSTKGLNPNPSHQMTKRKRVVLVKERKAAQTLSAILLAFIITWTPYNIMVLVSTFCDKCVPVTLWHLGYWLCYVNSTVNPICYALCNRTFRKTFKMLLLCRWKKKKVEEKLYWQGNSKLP

[2] = molecular target: T2, Muscarinic acetylcholine receptor M5 (Homo sapiens) (UniProt P08912); assay: Negative allosteric modulation of human muscarinic acetylcholine receptor M5 expressed in CHO cells assessed as reduction of acetylcholine-induced calcium mobilization at 10 uM incubated for 150 secs prior to acetylcholine induction by Fluo-4 AM staining-based fluorescence assay relative to control; set-up: scale not given: the % may be the effect or the level left
T2 sequence (whole entry): T1 sequence (P08912 whole entry)

[3] = molecular target: T3, Muscarinic acetylcholine receptor M4 (Homo sapiens, UniProt P08173); assay: Negative allosteric modulation of human muscarinic acetylcholine receptor M4 expressed in CHO cells assessed as inhibition of acetylcholine-induced calcium mobilization incubated for 150 secs prior to acetylcholine induction by Fluo-4 AM staining-based fluorescence assay
T3 sequence (P08173 whole entry): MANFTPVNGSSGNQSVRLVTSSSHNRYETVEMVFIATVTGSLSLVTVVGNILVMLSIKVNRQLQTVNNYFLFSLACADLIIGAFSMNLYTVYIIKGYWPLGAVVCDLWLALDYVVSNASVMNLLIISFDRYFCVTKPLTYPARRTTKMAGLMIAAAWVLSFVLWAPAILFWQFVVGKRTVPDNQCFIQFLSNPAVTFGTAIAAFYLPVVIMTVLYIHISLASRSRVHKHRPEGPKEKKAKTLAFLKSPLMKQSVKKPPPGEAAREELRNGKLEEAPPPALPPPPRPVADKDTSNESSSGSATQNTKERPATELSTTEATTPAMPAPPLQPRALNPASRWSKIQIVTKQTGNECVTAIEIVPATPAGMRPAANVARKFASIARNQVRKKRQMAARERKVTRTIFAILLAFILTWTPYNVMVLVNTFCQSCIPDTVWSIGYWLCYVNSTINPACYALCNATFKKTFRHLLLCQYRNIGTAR

[4] = molecular target: T4, Muscarinic acetylcholine receptor M5 (Rattus norvegicus, UniProt P08911); assay: Negative allosteric modulation of rat muscarinic acetylcholine receptor M5 expressed in CHO cells assessed as inhibition of acetylcholine-induced calcium mobilization incubated for 150 secs prior to acetylcholine induction by Fluo-4 AM staining-based fluorescence assay
T4 sequence (P08911 whole entry): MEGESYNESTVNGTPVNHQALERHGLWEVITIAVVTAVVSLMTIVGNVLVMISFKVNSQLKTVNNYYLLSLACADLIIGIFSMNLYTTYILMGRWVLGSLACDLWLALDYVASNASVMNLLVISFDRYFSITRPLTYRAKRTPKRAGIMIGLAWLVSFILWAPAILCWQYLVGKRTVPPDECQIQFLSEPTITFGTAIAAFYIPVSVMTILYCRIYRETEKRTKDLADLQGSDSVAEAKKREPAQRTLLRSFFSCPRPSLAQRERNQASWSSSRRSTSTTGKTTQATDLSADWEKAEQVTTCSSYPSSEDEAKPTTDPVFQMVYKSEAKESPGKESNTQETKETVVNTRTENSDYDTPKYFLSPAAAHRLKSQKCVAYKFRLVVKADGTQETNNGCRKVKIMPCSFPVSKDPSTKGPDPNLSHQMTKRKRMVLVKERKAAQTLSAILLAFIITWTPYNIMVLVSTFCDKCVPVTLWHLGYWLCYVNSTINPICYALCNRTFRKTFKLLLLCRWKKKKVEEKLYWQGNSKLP

[5] = molecular target: T5, Muscarinic acetylcholine receptor M2 (Homo sapiens, UniProt P08172); assay: Negative allosteric modulation of human muscarinic acetylcholine receptor M2 expressed in CHO cells assessed as inhibition of acetylcholine-induced calcium mobilization incubated for 150 secs prior to acetylcholine induction by Fluo-4 AM staining-based fluorescence assay
T5 sequence (P08172 whole entry): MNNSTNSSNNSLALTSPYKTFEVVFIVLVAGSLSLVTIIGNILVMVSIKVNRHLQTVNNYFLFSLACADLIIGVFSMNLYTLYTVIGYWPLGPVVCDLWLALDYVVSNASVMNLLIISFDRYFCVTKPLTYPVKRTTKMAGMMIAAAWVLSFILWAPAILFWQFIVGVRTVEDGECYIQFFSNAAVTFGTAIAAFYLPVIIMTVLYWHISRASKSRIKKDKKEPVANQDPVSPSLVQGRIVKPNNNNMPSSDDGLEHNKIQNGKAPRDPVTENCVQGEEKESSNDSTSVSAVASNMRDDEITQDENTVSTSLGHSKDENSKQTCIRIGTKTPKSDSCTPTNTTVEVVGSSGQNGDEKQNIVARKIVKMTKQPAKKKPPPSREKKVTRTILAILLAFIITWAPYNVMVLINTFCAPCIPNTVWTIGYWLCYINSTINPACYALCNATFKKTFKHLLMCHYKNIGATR

[6] = molecular target: Muscarinic acetylcholine receptor M3 (Homo sapiens, UniProt P20309); assay: Negative allosteric modulation of human muscarinic acetylcholine receptor M3 expressed in CHO cells assessed as inhibition of acetylcholine-induced calcium mobilization incubated for 150 secs prior to acetylcholine induction by Fluo-4 AM staining-based fluorescence assay
[7] = molecular target: T6, Muscarinic acetylcholine receptor M1 (Homo sapiens, UniProt P11229); assay: Negative allosteric modulation of human muscarinic acetylcholine receptor M1 expressed in CHO cells assessed as inhibition of acetylcholine-induced calcium mobilization incubated for 150 secs prior to acetylcholine induction by Fluo-4 AM staining-based fluorescence assay
T6 sequence (P11229 whole entry): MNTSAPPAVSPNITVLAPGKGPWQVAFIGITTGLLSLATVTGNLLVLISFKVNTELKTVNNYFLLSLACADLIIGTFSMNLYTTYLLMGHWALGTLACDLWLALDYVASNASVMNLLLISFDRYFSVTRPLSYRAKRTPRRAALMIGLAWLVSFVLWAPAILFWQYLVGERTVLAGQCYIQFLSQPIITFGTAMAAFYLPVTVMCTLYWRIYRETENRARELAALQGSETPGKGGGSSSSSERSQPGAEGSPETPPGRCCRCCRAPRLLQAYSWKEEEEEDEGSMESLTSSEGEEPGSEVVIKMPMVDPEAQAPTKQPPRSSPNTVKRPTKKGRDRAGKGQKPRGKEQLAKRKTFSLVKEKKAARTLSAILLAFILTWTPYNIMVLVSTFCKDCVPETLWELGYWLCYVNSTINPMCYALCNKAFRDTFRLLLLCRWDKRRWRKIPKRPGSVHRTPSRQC

Chain of Muscarinic acetylcholine receptor M3 (P20309 whole entry): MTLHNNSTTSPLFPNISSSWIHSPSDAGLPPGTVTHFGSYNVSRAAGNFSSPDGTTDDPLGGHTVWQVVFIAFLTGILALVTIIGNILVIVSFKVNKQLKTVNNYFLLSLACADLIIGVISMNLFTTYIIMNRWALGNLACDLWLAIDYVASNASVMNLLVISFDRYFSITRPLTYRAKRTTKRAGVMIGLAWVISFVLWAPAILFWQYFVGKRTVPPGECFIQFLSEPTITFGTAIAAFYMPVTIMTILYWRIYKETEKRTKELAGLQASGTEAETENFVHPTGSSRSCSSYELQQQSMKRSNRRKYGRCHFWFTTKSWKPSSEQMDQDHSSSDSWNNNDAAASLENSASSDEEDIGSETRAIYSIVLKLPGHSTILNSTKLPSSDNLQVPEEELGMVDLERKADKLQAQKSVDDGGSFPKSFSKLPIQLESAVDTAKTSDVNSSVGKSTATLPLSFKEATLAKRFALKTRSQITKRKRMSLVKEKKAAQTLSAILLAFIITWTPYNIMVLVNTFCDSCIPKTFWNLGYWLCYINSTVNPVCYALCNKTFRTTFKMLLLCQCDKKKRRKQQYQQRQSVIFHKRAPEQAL

Row | SMILES | IC50 [1] | Activity [2] | further results
1 | Cc1ccc(C(=O)N2CCN3C(=O)c4ccccc4C23c2ccc(F)cc2)cc1 (stereo unspecified) | > 10 µM | – | –
2 | O=C(c1ccc(C(F)(F)F)cc1)N1CCN2C(=O)c3ccccc3C12c1ccc(Cl)cc1 (stereo unspecified) | 2 µM | 0.7% | –
3 | O=C(c1ccc(OC(F)(F)F)cc1)N1CCN2C(=O)c3ccccc3C12c1ccccc1 (stereo unspecified) | 4.47 µM | 0.2% | –
4 | O=C(c1ccc(SC(F)(F)F)cc1)N1CCN2C(=O)c3ccccc3C12c1ccc(F)cc1 (stereo unspecified) | 1.3 µM | -0.2% | –
5 | Cc1ccc(C(=O)N2CCN3C(=O)c4ccccc4C23c2ccc(Cl)cc2)cc1 (stereo unspecified) | 2.6 µM | 0.1% | –
6 | O=C(c1cccc(C(F)(F)F)c1)N1CCN2C(=O)c3ccccc3C12c1ccccc1 (stereo unspecified) | 3.02 µM | -0.7% | –
7 | O=C(c1cccc(C(F)(F)F)c1)N1CCN2C(=O)c3ccccc3C12c1ccc(F)cc1 (stereo unspecified) | 2.1 µM | -2.4% | –
8 | O=C(c1ccc(F)c(F)c1)N1CCN2C(=O)c3ccccc3C12c1ccc(F)cc1 (stereo unspecified) | > 10 µM | – | –
9 | Cc1ccc(C23c4ccccc4C(=O)N2CCN3C(=O)c2cc(F)cc(F)c2)cc1 (stereo unspecified) | 2.3 µM | -1.1% | –
10 | O=C(c1cc(F)cc(F)c1)N1CCN2C(=O)c3ccccc3C12c1ccc(F)cc1 (stereo unspecified) | > 10 µM | – | –
11 | O=C(c1ccc(OC(F)(F)F)cc1)N1CCN2C(=O)c3ccccc3C12c1ccc(F)cc1 (stereo unspecified) | > 10 µM | – | –
12 | O=C(c1cc(F)cc(F)c1)N1CCN2C(=O)c3ccccc3C12c1ccc(Cl)cc1 (stereo unspecified) | 1 µM | 2.8% | –
13 | O=C(c1ccc(C(F)(F)F)cc1)N1CCN2C(=O)c3ccccc3C12c1ccc(F)cc1 (stereo unspecified) | > 10 µM | – | –
14 | O=C(c1ccc(F)cc1)N1CCN2C(=O)c3ccccc3C12c1ccccc1 (stereo unspecified) | 3.49 µM | 41% | IC50 [3]: > 30 µM; IC50 [4]: 5.67 µM; IC50 [5]: > 30 µM; IC50 [6]: > 30 µM; IC50 [7]: > 30 µM
15 | Cc1ccc(C23c4ccccc4C(=O)N2CCN3C(=O)c2ccc(OC(F)(F)F)cc2)cc1 (stereo unspecified) | 3.5 µM | -0.2% | –
16 | O=C(c1ccc(OC(F)(F)F)cc1)N1CCN2C(=O)c3ccccc3C12c1ccc(Cl)cc1 (stereo unspecified) | 2.3 µM | -5.3% | –
17 | O=C(c1ccc(F)c(F)c1)N1CCN2C(=O)c3ccccc3C12c1ccc(Cl)cc1 (racemic) | – | 0.1% | IC50 [3]: > 30 µM; IC50 [5]: > 30 µM; IC50 [6]: > 30 µM; IC50 [7]: > 30 µM
18 | O=C(c1cc(Cl)cc(Cl)c1)N1CCN2C(=O)c3ccccc3C12c1ccccc1 (stereo unspecified) | 5.75 µM | 0% | –
19 | Cc1ccc(C(=O)N2CCN3C(=O)c4ccccc4C23c2ccc(C)cc2)cc1 (stereo unspecified) | > 10 µM | – | –
20 | Cc1ccc(C23c4ccccc4C(=O)N2CCN3C(=O)c2ccc(F)c(F)c2)cc1 (stereo unspecified) | 2.6 µM | -6.8% | –
21 | O=C(c1cc(F)cc(F)c1)N1CCN2C(=O)c3ccccc3C12c1ccccc1 (stereo unspecified) | 3.8 µM | -2.2% | –
22 | O=C(c1cccc(C(F)(F)F)c1)N1CCN2C(=O)c3ccccc3C12c1ccc(Cl)cc1 (stereo unspecified) | 4.9 µM | -7.2% | –
23 | Cc1ccc(C23c4ccccc4C(=O)N2CCN3C(=O)c2ccc(C(F)(F)F)cc2)cc1 (stereo unspecified) | > 10 µM | – | –
24 | O=C(c1ccc(C(F)(F)F)cc1)N1CCN2C(=O)c3ccccc3C12c1ccccc1 (stereo unspecified) | 1.95 µM | -2.4% | –
25 | Cc1ccc(C23c4ccccc4C(=O)N2CCN3C(=O)c2cccc(C(F)(F)F)c2)cc1 (stereo unspecified) | > 10 µM | – | –
26 | Cc1ccc(C23c4ccccc4C(=O)N2CCN3C(=O)c2ccc(SC(F)(F)F)cc2)cc1 (stereo unspecified) | 4.1 µM | 4.1% | –
27 | O=C(c1ccc(SC(F)(F)F)cc1)N1CCN2C(=O)c3ccccc3C12c1ccc(Cl)cc1 (stereo unspecified) | 3 µM | -9.2% | –
28 | O=C(c1ccc(SC(F)(F)F)cc1)N1CCN2C(=O)c3ccccc3C12c1ccccc1 (stereo unspecified) | 1.38 µM | 0.5% | –

From ChEMBL document CHEMBL3102750 (J Med Chem, 2013)
